Test results from patent US20090029992A1, “SUBSTITUTED PYRAZOLE COMPOUNDS” (priority 2007, published 2009).

Legend:
[1] = target: T1, N-terminal GST-tagged recombinant human Flt3, residues 564-end (Homo sapiens, UniProt P36888); experiment: Flt3 kinase inhibition assay (33P-ATP filter assay); assay type: biochemical; details: 40 minutes at room temperature
T1 construct: recombinant human Flt3, residues 564-end; GST (N); purchased Upstate USA Inc, 706 Forest Street, Charlottesville, Va
T1 sequence (P36888 564-993 limits assumed): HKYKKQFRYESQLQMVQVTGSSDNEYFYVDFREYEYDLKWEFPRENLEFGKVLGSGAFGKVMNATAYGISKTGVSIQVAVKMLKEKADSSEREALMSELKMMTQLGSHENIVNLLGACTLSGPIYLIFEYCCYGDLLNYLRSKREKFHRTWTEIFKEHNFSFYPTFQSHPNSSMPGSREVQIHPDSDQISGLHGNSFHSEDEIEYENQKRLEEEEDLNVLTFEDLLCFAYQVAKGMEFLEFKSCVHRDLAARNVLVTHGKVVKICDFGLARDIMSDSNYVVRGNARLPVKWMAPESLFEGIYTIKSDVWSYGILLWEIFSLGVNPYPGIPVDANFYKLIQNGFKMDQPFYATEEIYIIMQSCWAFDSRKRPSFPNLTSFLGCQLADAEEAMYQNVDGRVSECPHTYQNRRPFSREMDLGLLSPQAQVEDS
Procedure: (§1) Compounds were assayed for Flt3 kinase inhibitory activity using N-terminal GST-tagged recombinant human Flt3, residues 564-end (Upstate USA Inc, 706 Forest Street, Charlottesville, Va.). Serial dilutions of compound were assayed in a final reaction volume of 25 μL by incubating a solution of the above Flt3 kinase (5-10 mU), 8 mM MOPS (3-(N-morpholino) propanesulfonic acid) pH 7.0, 0.2 mM EDTA (ethylenediamine tetracetic acid), 50 μM amino acid sequence EAIYAAPFAKKK (Upstate USA Inc, 706 Forest Street, Charlottesville, Va.), and 10 mM magnesium acetate and [γ-^33P-ATP] (specific activity of about 500 cpm/μmol, concentration as required). The reaction was initiated by the addition of the magnesium acetate and [γ-^33P-ATP] mixture. After incubation for 40 minutes at room temperature, the reaction was stopped by the addition of 5 μL of a 3% phosphoric acid solution. A 10 μL aliquote of the reaction was then spotted onto a P30 filtermat (PerkinElmer, Wellesley, Mass.) and washed three times for five minutes in 75 mM phosphoric acid and once in methanol prior to drying and scintillation counting. Inhibition of Flt3 activity was determined by comparison to assays that contained no inhibitor.

HCT116 cells = experiment: Whole cell cytotoxicity assay, Sulforhodamine B; assay type: cell-based; details: Homo sapiens, HCT-116, HCT116, 96 hours incubation, SRB; for GI50: read-out: GI50 HCT116 cell growth; for IC50: read-out: IC50 values in this assay (HCT116 cell growth)
Procedure: Human tumor-derived cell lines, HCT116 or MCF7 (ATCC) were plated in a 96 well plate in DMEM containing 10% fetal bovine serum and 2 mM L-glutamine at a density of 500 HCT116 cells or 1,000 MCF7 cells per well and incubated at 37° C., 5% CO2, for 24 hours prior to the addition of experimental compounds. Compounds were added using the dilution series indicated to duplicate plates and the cells were incubated in media plus compound for 96 hours. An additional plate was fixed in 10% TCA at the time of the addition of compound to provide a measurement of the cell population at time zero, the time of drug addition. Following the 96 hour incubation, cells were fixed in situ by gently aspirating off the culture media and then adding 50 ul of ice cold 10% TCA per well and incubation at 4° C. for 60 minutes. The plates were washed with tap water five times and allowed to air dry for 5 minute. 50 ul of a 0.4% (w/v) Sulforhodamine B solution in 1% (v/v) acetic acid was added per well and the cells were incubated for 30 minutes at room temperature. Following staining, plates were washed four times with 1% acetic acid to remove any unbound dye and then allowed to air dry for 5 minutes. The stain was solubilized with 100 ul of 10 mM Tris pH 10.5 per well and placed on an orbital rotator for 5 minutes. The absorbance was read at 570 nm. Percentage growth was calculated using the absorbance readings from the time zero plate (Tz) and the dilution series plate […] which included a column of cells grown in media without compound as a control (C) using the formulas:
[(Ti−Tz)/(C−Tz)]×100 for concentrations for which Ti>/=Tz
[(Ti−Tz)/Tz]×100 for concentrations for which Ti<Tz.
Three dose response parameters were calculated for each experimental agent. Growth inhibition of 50% (GI50) was calculated from [(Ti−Tz)/(C−Tz)]×100=50, which was the drug concentration resulting in a 50% reduction in the net protein increase (as measured by SRB staining) in control cells during the drug incubation. The drug concentration resulting in total growth inhibition (TGI) was calculated from Ti=Tz. The LC50 (concentration of drug resulting in a 50% reduction in the measured protein at the end of the drug treatment as compared to that at the beginning) indicating a net loss of cells following treatment ws calculated from [(Ti−Tz)/Tz]×100=−50. Values are calculated for each of these three parameters if the level of activity was reached; however, if the effect was not reached or was exceeded, the value for that parameter is expressed as greater or less than the maximum or minimum concentration tested.

[2] = target: T2, N-terminal His6-tagged recombinant human KDR, residues 790-end (Homo sapiens, UniProt P35968); experiment: KDR kinase inhibition assay (33P-ATP filter assay); assay type: biochemical
T2 construct: recombinant human KDR, residues 790-end; His6 (N); purchased Upstate USA Inc, 706 Forest Street, Charlottesville, Va
T2 sequence (P35968 790-1356 limits assumed): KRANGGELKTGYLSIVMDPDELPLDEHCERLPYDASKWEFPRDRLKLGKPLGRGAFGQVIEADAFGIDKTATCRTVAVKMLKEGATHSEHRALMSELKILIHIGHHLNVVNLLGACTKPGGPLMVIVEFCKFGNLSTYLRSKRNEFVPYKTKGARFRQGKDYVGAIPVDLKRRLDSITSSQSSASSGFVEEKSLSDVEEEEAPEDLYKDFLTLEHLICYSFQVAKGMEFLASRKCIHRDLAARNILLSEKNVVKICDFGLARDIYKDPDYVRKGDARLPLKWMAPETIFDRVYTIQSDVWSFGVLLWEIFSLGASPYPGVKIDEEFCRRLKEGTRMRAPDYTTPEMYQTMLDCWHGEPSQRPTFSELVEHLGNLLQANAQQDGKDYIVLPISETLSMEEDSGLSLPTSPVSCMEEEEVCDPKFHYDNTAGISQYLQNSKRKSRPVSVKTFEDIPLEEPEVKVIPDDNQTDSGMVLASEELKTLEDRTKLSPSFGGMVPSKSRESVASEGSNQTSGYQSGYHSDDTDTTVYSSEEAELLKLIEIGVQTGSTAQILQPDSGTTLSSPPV
Procedure: as §1, with “KDR” for “Flt3”, “His6-tagged” for “GST-tagged”, “KDR,” for “Flt3,”, “790-end” for “564-end”, “0.33 mg/mL myelin basic protein” for “50 μM amino acid sequence EAIYAAPFAKKK”

[3] = target: T3, N-terminal His-tagged human Src (Homo sapiens, UniProt P12931); experiment: Src kinase inhibition assay (33P-ATP filter assay); assay type: biochemical
T3 construct: His (N); purchased Upstate USA Inc, 706 Forest Street, Charlottesville, Va
T3 sequence (P12931 whole entry): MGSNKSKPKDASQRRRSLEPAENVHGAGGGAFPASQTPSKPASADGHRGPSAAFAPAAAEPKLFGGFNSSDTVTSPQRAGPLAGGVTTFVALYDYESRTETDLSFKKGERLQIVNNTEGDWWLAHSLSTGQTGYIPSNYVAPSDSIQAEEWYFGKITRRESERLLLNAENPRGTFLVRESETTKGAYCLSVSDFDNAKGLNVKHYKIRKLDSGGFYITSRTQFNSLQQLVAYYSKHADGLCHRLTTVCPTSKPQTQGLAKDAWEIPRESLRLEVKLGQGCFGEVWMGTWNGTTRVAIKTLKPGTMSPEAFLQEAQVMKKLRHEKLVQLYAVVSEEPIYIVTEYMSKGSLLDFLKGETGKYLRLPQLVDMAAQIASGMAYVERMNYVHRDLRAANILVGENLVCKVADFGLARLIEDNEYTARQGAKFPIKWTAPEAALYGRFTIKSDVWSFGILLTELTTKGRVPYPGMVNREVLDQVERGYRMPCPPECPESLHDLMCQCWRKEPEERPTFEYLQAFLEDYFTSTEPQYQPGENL
Procedure: Compounds were assayed for Src kinase inhibitory activity using N-terminal His-tagged human Src (Upstate USA Inc, 706 Forest Street, Charlottesville, Va.). Serial dilutions of compound were assayed in a final reaction volume of 25 μL by incubating a solution of the above Src kinase (5-10 mU), 8 mM MOPS (3-(N-morpholino) propanesulfonic acid) pH 7.0, 0.2 mM EDTA (ethylenediamine tetracetic acid), 250 μM amino acid sequence KVEKIGEGTYGVVYK (Upstate USA Inc, 706 Forest Street, Charlottesville, Va.), and 10 mM magnesium acetate and [γ-^33P-ATP] (specific activity of about 500 cpm/μmol, concentration as required). The reaction was initiated by the addition of the magnesium acetate and [γ-^33P-ATP] mixture. After incubation for 40 minutes at room temperature, the reaction was stopped by the addition of 5 μL of a 3% phosphoric acid solution. A 10 μL aliquote of the reaction was then spotted onto a P30 filtermat (PerkinElmer, Wellesley, Mass.) and washed three times for five minutes in 75 mM phosphoric acid and once in methanol prior to drying and scintillation counting. Inhibition of Src activity was determined by comparison to assays that contained no inhibitor.

[4] = group with IC50 greater than 100 nM

IC50 [1] [nM]	IC50 ([2]; 40 minutes at room temperature) [nM]	IC50 ([3]; 40 minutes at room temperature) [nM]	IC50 [3, 4] [nM]	IC50 [2, 4] [nM]	Structure (SMILES)	GI50 (HCT116 cells) [nM]	IC50 (HCT116 cells) [nM]
≤ 100	–	–	≤ 1000	≤ 1000	Cc1cc(Nc2cc(N(C)CCN(C)C)nc(-c3cccc4ccccc34)n2)n[nH]1 [Example 141, N^4-(2-(dimethylamino)ethyl)-N^4-methyl-N^6-(5-methyl-1H-pyrazol-3-yl)-2-(naphthalen-1-yl)pyrimidine-4,6-diamine]	≤ 1000	–
≤ 100	–	–	≤ 1000	≤ 1000	Cc1cc(Nc2cc(N(C)CCN(C)C)nc(-c3cccc(C)c3C)n2)n[nH]1 [Example 182, N^4-(2-(dimethylamino)ethyl)-2-(2,3-dimethylphenyl)-N^4-methyl-N^6-(5-methyl-1H-pyrazol-3-yl)pyrimidine-4,6-diamine]	–	1000 to 10000
≤ 100	≤ 100	–	≤ 1000	–	Cc1cc(Nc2cc(N(C)CCN(C)C)nc(-c3cc(F)ccc3F)n2)n[nH]1 [Example 183, 2-(2,5-difluorophenyl)-N^4-(2-(dimethylamino)ethyl)-N^4-methyl-N^6-(5-methyl-1H-pyrazol-3-yl)pyrimidine-4,6-diamine]	–	1000 to 10000
≤ 100	–	–	≤ 1000	≤ 1000	CCc1ccccc1-c1nc(Nc2cc(C)[nH]n2)cc(N(C)CCN(C)C)n1 [Example 186, N^4-(2-(dimethylamino)ethyl)-2-(2-ethylphenyl)-N^4-methyl-N^6-(5-methyl-1H-pyrazol-3-yl)pyrimidine-4,6-diamine]	–	1000 to 10000
≤ 100	–	–	≤ 1000	≤ 1000	Cc1cc(Nc2cc(N3CCN(C)CC3)nc(-c3ccc(F)cc3F)n2)n[nH]1 [Example 189, 2-(2,4-difluorophenyl)-N-(5-methyl-1H-pyrazol-3-yl)-6-(4-methylpiperazin-1-yl)pyrimidin-4-amine]	–	1000 to 10000

The next lines start with the compound.

Structure (SMILES)	IC50 [1] [nM]	IC50 ([2]; 40 minutes at room temperature) [nM]	IC50 ([3]; 40 minutes at room temperature) [nM]	IC50 [3, 4] [nM]	IC50 [2, 4] [nM]	GI50 (HCT116 cells) [nM]	IC50 (HCT116 cells) [nM]
Cc1cc(Nc2cc(N(C)CCN(C)C)nc(-c3ccccc3Cl)n2)n[nH]1 [Compound 50, 2-(2-chlorophenyl)-N4-(2-(dimethylamino)ethyl)-N4-methyl-N6-(5-methyl-1H-pyrazol-3-yl)pyrimidine-4,6-diamine]	≤ 100	≤ 100	≤ 100	≤ 1000	–	≤ 1000	1000 to 10000
Cc1cc(Nc2cc(N(C)CCN(C)C)nc(-c3ccccc3C(F)(F)F)n2)n[nH]1 [Compound 114, N^4-(2-(dimethylamino)ethyl)-N^4-methyl-N^6-(5-methyl-1H-pyrazol-3-yl)-2-(2-(trifluoromethyl)phenyl)pyrimidine-4,6-diamine]	≤ 100	≤ 100	–	≤ 1000	–	–	1000 to 10000
Cc1cc(Nc2cc(NC3CCOCC3)nc(-c3ccc4ccccc4c3)n2)n[nH]1 [Example 128, N^4-(5-methyl-1H-pyrazol-3-yl)-2-(naphthalen-2-yl)-N^6-(tetrahydro-2H-pyran-4-yl)pyrimidine-4,6-diamine]	≤ 100	≤ 100	≤ 100	–	–	–	1000 to 10000
